pIC50: −log10 of the molar value. Values joined by “and” are separate entries in the source; they are usually repeats but may differ in a detail not shown here. Identical values can stand only once. Like-named read-outs stand apart in the source and are kept apart here.
How the values were obtained:
Type in all cases: cell-based
[1] = test system: caspase-3/7 activity in MDA-MB-231 cells; test: Caspase-3/7Glo assay; details: 24 h
From the text: (§1) Negative values (shaded red) indicate sensitivity of the cell line proliferation to the knockdown of shown genes, whereas positive scores (shaded blue) indicate insensitivity. (B) IC50 values for indicated compounds in Ras pathway mutant cell lines NCI-H358, MDA-MB231 and A375 grown as 3D spheroids under serum free conditions. […] Statistical comparisons were done using the average values across all three cell lines. […] Positive scores indicate synergistic drug interactions whereas negative scores would denote antagonistic drug interactions. A score of zero would indicate no antagonistic or synergistic effect. (D) Flow cytometric analysis of apoptosis in MDA-MB-231 cells. […] Benzethonium chloride and DMSO treated cells were used as positive and negative controls, respectively, for setting the gates. Percentage of total apoptotic cells (early and late stage) from two biological repeats (mean ± SD) is presented. Statistical analysis was performed using Fisher’s exact test comparing the total number of viable and apoptotic cells from two biological repeats. (E) Effect of inhibitors on cellular apoptosis studied using Caspase-3/7Glo assay. […] The caspase-3/7 activity was measured as a luminescence read-out and normalized to the vehicle control, 0.05% (v/v) DMSO. […] GAPDH detection was used as loading control.

[2] = test system: K-RasG12V (Rluc8-/GFP2-tagged) in HEK-293 EBNA cells; test: K-RasG12V nanoclustering-BRET assay; details: for effect on the RasG12V-BRET signals (in words): K-RasG12V and H-RasG12V biosensors; for K-RasG12V BRET: compounds 20 μM, FTI-277 1 μM, OphA 2.5 μM, 24 h
[3] = test system: H-RasG12V (Rluc8-/GFP2-tagged) in HEK-293 EBNA cells; test: H-RasG12V nanoclustering-BRET assay; details: for H-RasG12V BRET: compounds 20 μM, FTI-277 1 μM, OphA 2.5 μM, 24 h
[4] = test system: c-MYC in MDA-MB-231 cells; test: Western blot of c-MYC expression; details: 24 h
[5] = test system: pERK/ERK in MIA PaCa-2 cells; test: Western blot of MAPK signaling output (pERK/ERK)
MDA-MB-231 cells [6] = test: 2D cell viability assay (alamarBlue), MDA-MB-231; details: MDA-MB-231, 72 h
MIA PaCa-2 cells = test: 2D cell viability assay (alamarBlue), MIA PaCa-2; details: MIA PaCa-2, 72 h
HEK-293 EBNA cells = test: 2D cell viability assay (alamarBlue), HEK-293 EBNA; details: 72 h
[7] = test system: NCI-H358 (KRAS-G12C) 3D spheroids; test: 3D spheroid formation assay (alamarBlue), NCI-H358; details: read-out: IC50 values
Procedure: (§2) 3D spheroid formation assays were performed in 96-well low-attachment, suspension culture plates (cat. no. 655185, Cellstar, Greiner Bio-One) under serum free conditions. About 1000 cells per well were seeded in 50 μL RPMI medium (cat. no. 52400–025, Gibco, ThermoFisher Scientific) containing 0.5% (v/v) MethoCult (cat. no. SF H4636, Stemcell technologies), 1X B27 (cat. no. 17504044, Gibco, ThermoFisher Scientific), 25 ng/mL EGF (cat. no. E9644, Sigma-Aldrich) and 25 ng/ mL FGF (cat. no. RP-8628, ThermoFisher Scientific). Cells were cultured for 3 days and then treated with compounds or vehicle control (DMSO 0.1% (v/v) in growth medium) for another 3 days. The cells were supplemented with fresh growth medium on the third day together with the drug treatment. Spheroid formation efficiency was analyzed by alamarBlue assay reagent (cat. no. DAL1100, ThermoFisher Scientific).
(§3) A 10% (v/v) final volume of alamarBlue reagent was added to each well of the plate and incubated for 4 h at 37°C. Then the fluorescence intensity (λexcitation 560 ± 5 nm and λemission 590 ± 5 nm) was measured using the FLUOstar OPTIMA plate reader (BMG Labtech, Germany).
as §1, with “(A) Heatmap of ATARiS gene sensitivity scores of two KRAS dependent cell lines (NCI-H358 and MDA-MB-231) and a BRAF dependent cell line (A375). Negative” for “Negative”

[8] = test system: A375 (BRAF-V600E) 3D spheroids; test: 3D spheroid formation assay (alamarBlue), A375
Procedure: as §2, §3
as §1, with “(A) Heatmap of ATARiS gene sensitivity scores of two KRAS dependent cell lines (NCI-H358 and MDA-MB-231) and a BRAF dependent cell line (A375). Negative” for “Negative”

[9] = test system: MDA-MB-231 (KRAS-G13D) 3D spheroids; test: 3D spheroid formation assay (alamarBlue), MDA-MB-231; details: read-out: IC50 values
Procedure: as §2, §3
as §1, with “(A) Heatmap of ATARiS gene sensitivity scores of two KRAS dependent cell lines (NCI-H358 and MDA-MB-231) and a BRAF dependent cell line (A375). Negative” for “Negative”

MDA-MB-231 cells [10] = test: Flow cytometry-based apoptosis assay (Annexin V-FITC / 7-AAD); details: for apoptotic cells (%): DT-061 10 μM, calmidazolium 5 μM or combination, 24 h
Procedure: MDA-MB-231 cells were grown for 24 h in complete RPMI medium. The next day the cells were treated with inhibitors for 24 h. […] The cells were labelled using the Annexin V-FITC / 7-AAD apoptosis-detection kit (Beckman-Coulter, cat. no. B60224-AB) according to the manufacturer’s instruction.
as §1

[11] = DT-061 5 μM, calmidazolium 5 μM, combination 5 μM each, staurosporine 1 μM, normalized to DMSO, replicates
[12] = K-RasG12V nanoclustering-BRET dose response (0.1–80 μM; OphA 0.3–20 μM), replicates
[13] = K-RasG12V nanoclustering-BRET, mean
[14] = H-RasG12V nanoclustering-BRET dose response (0.1–80 μM; OphA 0.3–20 μM), replicates
[15] = H-RasG12V nanoclustering-BRET, mean
[16] = 10 μM, MDA-MB-231, replicates N1-N4
[17] = 20 μM, MDA-MB-231, replicates N1-N4, values marked * excluded
[18] = MIA PaCa-2 + EGF, same treatments, mean
[19] = MIA PaCa-2 + EGF, 2 h, trametinib 1 μM, AMG-510 1 μM, calmidazolium 20 μM, DT-061 20 μM, combination each 10 μM, fluphenazine mustard 20 μM, replicates N1-N3

SMILES: CN[C@@H]1C[C@H]2O[C@@](C)([C@@H]1OC)n1c3ccccc3c3c4c(c5c6ccccc6n2c5c31)C(=O)NC4 [staurosporine]
- caspase 3/7 activity (fold change) [1, 11]: 5.7754 fold change and 5.5715 fold change and 6.4904 fold change and 6.254 fold change
- caspase 3/7 activity (fold change) ([1]; same treatments, mean): 6.02 fold change

SMILES: FC(F)(F)c1ccc2c(c1)N(CCCN1CCN(CCCl)CC1)c1ccccc1S2 [fluphenazine mustard]
- effect on the RasG12V-BRET signals (in words) [2]: even stronger effect than CMZ
- DSS3 BRET score [2, 12]: 17.9 and 3.8 and 4.3 and 7 and 12.9
- DSS3 BRET score [2, 13]: 9.18
- K-RasG12V BRET ([2]; mean): 72.64
- DSS3 BRET score [3, 14]: 13.1 and 5.3 and 9.9 and 9.6
- DSS3 BRET score [3, 15]: 9.48
- H-RasG12V BRET ([3]; mean): 65.64
- c-MYC/Vinculin relative expression [4, 16]: 0.7502 and 0.7758 and 0.7975 and 1.298
- c-MYC/Vinculin relative expression ([4]; 10 μM, Mean (DMSO 1.78)): 0.91
- c-MYC/Vinculin relative expression [4, 17]: 1.798* and 1.478 and 1.405 and 0.9115
- c-MYC/Vinculin relative expression ([4]; 20 μM, Mean (DMSO 1.48)): 1.26
- normalized pERK/ERK ratio % [5]: 46.7324% and 34.232% and 39.0258%
- normalized pERK/ERK ratio % [5, 18]: 40%
- 2D monolayer DSS3 (MDA-MB-231 cells [6]; Mean): 32.27
- 2D monolayer DSS3 (MDA-MB-231 cells [6]; replicates N1-N3): 27.5 and 31.9 and 37.4
- 2D monolayer DSS3 (MIA PaCa-2 cells; Mean): 65.73
- 2D monolayer DSS3 (MIA PaCa-2 cells; replicates N1-N3): 64.1 and 65.3 and 67.8
- 2D monolayer DSS3 (HEK-293 EBNA cells; Mean): 5.4
- 2D monolayer DSS3 (HEK-293 EBNA cells; replicates N1-N3): 6.1 and 5.1 and 5

SMILES: O=S(=O)(N[C@@H]1CCC[C@H](N2c3ccccc3Oc3ccccc32)[C@H]1O)c1ccc(OC(F)(F)F)cc1 [DT-061]
- pIC50 ([7]; Homo sapiens, NCI-H358, 72 h, NCI-H358 3D spheroids, serum free, 3 days treatment, replicates N1, N2): 5.62
- pIC50 ([7]; Homo sapiens, NCI-H358, NCI-H358 3D spheroids, Mean, n = 2): 5.58
- pIC50 ([7]; NCI-H358 3D spheroids, serum free, 3 days treatment, replicates N1, N2): 5.54
- pIC50 ([8]; A375 3D spheroids, serum free, 3 days treatment, replicates N1, N2): 5.57
- pIC50 ([8]; Homo sapiens, A-375, 72 h, A375 3D spheroids, serum free, 3 days treatment, replicates N1, N2): 5.82
- pIC50 ([8]; Homo sapiens, A-375, A375 3D spheroids, Mean, n = 2): 5.68
- pIC50 ([9]; Homo sapiens, MDA-MB-231, 72 h, MDA-MB-231 3D spheroids, serum free, 3 days treatment, replicates N1, N2): 5.52
- pIC50 ([9]; Homo sapiens, MDA-MB-231, MDA-MB-231 3D spheroids, Mean, n = 2): 5.52
- pIC50 ([9]; MDA-MB-231 3D spheroids, serum free, 3 days treatment, replicates N1, N2): 5.51
- apoptotic cells (%) (MDA-MB-231 cells [10]; early and late stage, replicates N1, N2): 17.3843% and 7.228%
- apoptotic cells (%) (MDA-MB-231 cells [10]; mean): 12.31%
- apoptotic cell population (MDA-MB-231 cells [10]; MDA-MB-231, 24 h): 12%
- caspase 3/7 activity (fold change) [1, 11]: 0.9556 fold change and 1.016 fold change
- caspase 3/7 activity (fold change) ([1]; same treatments, mean): 0.99 fold change
- effect on the RasG12V-BRET signals (in words) [2]: Neither the PP2A activator DT-061, nor Flu had an effect
- DSS3 BRET score [2, 12]: 0.6 and 1
- DSS3 BRET score [2, 13]: 0.8
- K-RasG12V BRET ([2]; A/D plasmid ratio 4/1, individual replicates N1.1-N3.4): 102.439 and 101.315 and 102.277 and 100.953 and 98.6605 and 100.047 and 101.073 and 97.4843
- K-RasG12V BRET ([2]; mean): 100.53
- DSS3 BRET score [3, 14]: 0.2 and 0.4
- DSS3 BRET score [3, 15]: 0.3
- H-RasG12V BRET ([3]; A/D plasmid ratio 4/1, individual replicates N1.1-N2.4): 100.79 and 100.058 and 101.294 and 101.06 and 100.674 and 100.693 and 99.8758 and 99.7238
- H-RasG12V BRET ([3]; mean): 100.52
- c-MYC/Vinculin relative expression [4, 16]: 1.352 and 1.842 and 0.8895 and 1.57
- c-MYC/Vinculin relative expression ([4]; 10 μM, Mean (DMSO 1.78)): 1.41
- c-MYC/Vinculin relative expression [4, 17]: 1.784* and 1.955* and 0.7599 and 0.9549
- c-MYC/Vinculin relative expression ([4]; 20 μM, Mean (DMSO 1.48)): 0.86
- normalized pERK/ERK ratio % [5, 19]: 84.4108% and 54.7097% and 80.94%
- normalized pERK/ERK ratio % [5, 18]: 73.35%

SMILES: C=CC(=O)N1CCN(c2nc(=O)n(-c3c(C)ccnc3C(C)C)c3nc(-c4c(O)cccc4F)c(F)cc23)[C@@H](C)C1 [AMG-510]
- potency relative to Flu-M in MAPK-signaling (pERK) inhibition ([5]; MIA PaCa-2): at least 20 times
- normalized pERK/ERK ratio % [5, 19]: 29.0898% and 30.5706% and 27.2049%
- normalized pERK/ERK ratio % [5, 18]: 28.96%
- 2D monolayer DSS3 (MDA-MB-231 cells [6]; Mean): 4.2
- 2D monolayer DSS3 (MDA-MB-231 cells [6]; replicates N1-N3): 1.7 and 3 and 7.9
- 2D monolayer DSS3 (MIA PaCa-2 cells; Mean): 64.97
- 2D monolayer DSS3 (MIA PaCa-2 cells; replicates N1-N3): 62.6 and 65 and 67.3
- 2D monolayer DSS3 (HEK-293 EBNA cells; Mean): 15.93
- 2D monolayer DSS3 (HEK-293 EBNA cells; replicates N1-N3): 22.8 and 12.8 and 12.2
